From US20170058314A1, “NOVEL METHODOLOGY FOR IDENTIFYING ANTI-PERSISTER ACTIVITY AND ANTIMICROBIAL SUSCEPTIBILITY FOR BORRELIA BURGDORFERI AND OTHER BACTERIA” (priority 2014, published 2017) come the findings set out here.

Experiment [1] relates to stationary phase B. burgdorferi persisters (strain B31). Nature of the experiment: epifluorescence microscope counting after SYBR Green I/PI staining, FDA drug screen. As to conditions: Borreliella burgdorferi, 168 h, read-out: Residual viable cells (epifluorescence microscope counting).
Experiment [2] shares this test system. Description: SYBR Green I/PI viability assay (plate reader), FDA-approved drug library screen.
Experiment [3] deals with round body form of B. burgdorferi. Description: Subculture test of drug-treated round body form. As to the method:
For induction of round body form of B. burgdorferi, B. burgdorferi spirochetes (1×10^5 spirochetes/mL) were cultured in BKS-H medium for 6 days without shaking. After the 6-day incubation, amoxicillin at a final concentration of 50 μg/mL was added to the culture for round body form induction. After 72 h induction at 33° C., the round body forms of B. burgdorferi were examined by the microscopy. The round body cells (100 μL) were transferred to 96-well tissue culture microplates for evaluation of the effects of antibiotic treatment.

Experiment [4] has as its system log phase and stationary phase B. burgdorferi culture. Nature of the experiment: Antibiotic exposure assay, SYBR Green I/PI (drugs alone and combinations). An outline of the steps:
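Stationary-phase or round-body B. burgdorferi exposed 7 days at 33 °C to drugs alone or combined at 10 μg/mL each (single-compound screen: 50 μM final). Viability by SYBR Green I/PI, ex 485, em 535/635 nm; percent live from regression of green/red ratio, corrected by direct microscopy counting.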

The test system of experiment [5] is B. burgdorferi log and stationary phase cultures. Nature of the experiment: epi-fluorescence microscope counting after antibiotic exposure (persister frequency, planktonic forms). The class given is cell-based, Borrelia burgdorferi.
The test system of experiment [6] is round body form of B. burgdorferi. Description: SYBR Green I/PI assay on amoxicillin-induced round body form.
Setting [7] is: 50 μM, 7 days, stationary phase.
The mark [8] stands for this setting: 10 μg/mL, 7 days treatment, then subculture.
[9] abbreviates: 10 μg/mL drugs or combinations, 7 days.

Take `C[C@H]1c2cccc(O)c2C(=O)C2=C(O)[C@]3(O)C(=O)C(C(N)=O)=C(O)[C@@H](N(C)C)[C@@H]3[C@@H](O)[C@@H]21` [Doxycycline]: the viability at 50 µM in experiment [1] turned out to be 75%. Further, in experiment [2] (setting [7]), the “Ratio of Green/Red fluorescence, Primary screening” value stood at 7.62; the “Ratio of Green/Red fluorescence, Rescreening (first column)” value was found to be 7.35; the “Ratio of Green/Red fluorescence, Rescreening (second column)” value came out at 7.58. The viability at 50 µM in experiment [2] (Borreliella burgdorferi, 168 h, read-out: Residual viable cells (regression equation, SYBR Green I/PI assay)) came out at 67%. In experiment [3] (setting [8]), the “Spirochetes number After 10 day subculture” value is on record as 1 × 10^6 and the “Spirochetes number After 20 day subculture” value is on record as “about 5×10^6”. The “Spirochetes number After 20 day subculture” value in experiment [3] (10 μg/mL, 7 days treatment, then subculture, listed as Dox) is reported as 5 × 10^6. Besides, the viability at 10 µg/mL in experiment [3] (Borreliella burgdorferi, 168 h, read-out: Residual viable cells) was 44%. In experiment [4] (setting [9]), the “Live cell %, ten day old stationary phase culture (in brackets)” value came out at 72%. Moreover, in experiment [4] (Borreliella burgdorferi, 168 h, read-out: Live Cell % (residual viable B. burgdorferi), ten-day-old stationary phase culture enriched with micro-colonies, 10 μg/mL each drug, 7 days), the viability at 10 µg/mL turned out to be 72%. In experiment [5] (3-day log phase culture), the “persister frequency (percentage of live cells after antibiotic treatment, in brackets)” value is reported as “(6.4%)”. Moreover, the “persister frequency (in brackets)” value in experiment [5] (7-day stationary phase culture) is given as “(24%)”. Also, in experiment [5] (10-day stationary phase culture), the “persister frequency (in brackets)” value is given as “(~25%)”. Besides, the “planktonic form cells remaining green (live)” value in experiment [5] (10-day-old stationary phase culture, 10 μg/mL, 7 days, FIG. 17A) was “about 71%”. Also, the “Live cell %, round body form” value in experiment [6] (setting [9]) was determined as 49%. Further, the viability at 50 µM in experiment [6] (Borreliella burgdorferi, 168 h, read-out: Residual viable cells (SYBR Green I/PI assay)) was 42%. Besides, in experiment [6] (round body form, 50 μM, 7 days), the “Ratios of green/red fluorescence, Primary screening” value amounted to 6.34; the “Ratios of green/red fluorescence, Rescreening (first column)” value is recorded as 6.39; the “Ratios of green/red fluorescence, Rescreening (second column)” value turned out to be 6.67.
